Consider 65 compounds from patent US5684151A, “1-arylsulphonyl, arylcarbonyl and 1-arylphosphonyl-3-phenyl-1,4,5,6-tetrahydropyridazines” (priority 1995, dated 1997).

The target of the test is T1, progestin receptor from rabbit uterus (Oryctolagus cuniculus, UniProt P06186).
T1 construct: Cytosolic progestin receptor were obtained by mixing rabbit uterine tissue with a Tris buffer; from tissue; host or cells: rabbit uterus cytosol
T1 sequence (P06186 whole entry): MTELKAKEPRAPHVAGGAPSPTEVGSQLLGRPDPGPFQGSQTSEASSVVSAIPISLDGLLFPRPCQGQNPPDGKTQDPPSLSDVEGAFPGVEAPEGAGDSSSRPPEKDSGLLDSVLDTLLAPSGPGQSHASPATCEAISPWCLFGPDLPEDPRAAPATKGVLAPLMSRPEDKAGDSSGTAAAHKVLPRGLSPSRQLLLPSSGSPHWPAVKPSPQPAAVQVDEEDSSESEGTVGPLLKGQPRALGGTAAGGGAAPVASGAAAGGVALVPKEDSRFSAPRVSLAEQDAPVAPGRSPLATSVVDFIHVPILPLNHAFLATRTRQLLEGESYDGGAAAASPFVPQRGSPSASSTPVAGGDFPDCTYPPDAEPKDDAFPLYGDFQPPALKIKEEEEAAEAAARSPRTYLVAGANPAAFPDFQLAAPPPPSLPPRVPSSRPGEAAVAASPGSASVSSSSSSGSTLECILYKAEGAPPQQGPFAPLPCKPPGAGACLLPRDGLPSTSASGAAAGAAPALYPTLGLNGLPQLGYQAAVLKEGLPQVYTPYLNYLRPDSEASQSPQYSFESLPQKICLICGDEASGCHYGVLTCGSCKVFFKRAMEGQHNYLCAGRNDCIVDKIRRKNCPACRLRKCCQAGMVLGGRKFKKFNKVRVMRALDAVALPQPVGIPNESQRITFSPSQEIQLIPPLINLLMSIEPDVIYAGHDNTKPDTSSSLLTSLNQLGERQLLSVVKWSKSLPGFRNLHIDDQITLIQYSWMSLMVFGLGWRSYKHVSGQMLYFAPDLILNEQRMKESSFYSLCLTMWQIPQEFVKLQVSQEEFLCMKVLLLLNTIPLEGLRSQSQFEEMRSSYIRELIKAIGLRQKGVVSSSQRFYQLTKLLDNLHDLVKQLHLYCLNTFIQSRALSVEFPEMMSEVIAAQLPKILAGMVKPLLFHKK
Put plainly: Progestin receptor binding (3H-R5020 displacement). The settings on record: rabbit uterine cytosol, 4° C., 18 h, read-out: IC50: Binding affinity for the progestin receptor from rabbit uterus. Here is the method:
A progestin initiates a biological response by first binding to a progestin receptor. Affinity for progestin receptors was determined by measuring the ability of compounds to displace a progestin radioligand from those receptors in vitro. Cytosolic progestin receptor were obtained by mixing rabbit uterine tissue with a Tris buffer [0.1M Tris-Hcl, 1 mM Na2 EDTA, 1 mM dithiothreotol, 1 mM sodium molybdate, 1% glycerol, pH 7.4]. The tissue/buffer mixture was homogenized under ice-cold conditions. The homogenate was then centrifuged and the supernatant (cytosol preparation) was decanted and stored at -70° C. and thawed prior to use. The competitive binding assay was performed by mixing ^3 H-R5020, a progestin radioligand, with cytosol preparation and various concentrations of test compounds (prepared in DMSO with a final 5% DMSO concentration). This mixture was then incubated at 4° C. for about 18 hours. Non-specific binding was determined using an unlabelled ligand in excess. After the incubation period, the radioligand bound to receptor was separated from free radioligand using dextran-coated charcoal. The amount of bound radioligand was then determined by liquid scintillation counting. The data were expressed as the concentration of test compound that displaced 50% of the radioligand from the receptor (IC50)
Aspects of the application used in this procedure are described in the following: J. L. McGuire et al., Biochemistry 13, 319, 1974.
`O=S(=O)(c1cc(Cl)ccc1Cl)N1CCCC(c2ccc3c(c2)OCCO3)=N1` [Compound 123]: the IC50 came out at 557 nM.

On to `Cc1ccc(S(=O)(=O)N2CC(C)CC(c3ccccc3)=N2)cc1` (centres unmarked) [Compound 143], for which the IC50 stood at 1380 nM. Take `O=S(=O)(c1ccc(F)cc1)N1CCCC(c2ccc(F)cc2)=N1` [Compound 18]: the IC50 came to 204 nM. Under `Cc1ccc(C(=O)N2CCCC(c3ccc(Cl)cc3)=N2)cc1` [Compound 146, 1-(4-Methylbenzoyl)-3-(4-chlorophenyl)-1,4,5,6-tetrahydropyridazine] stands 1000 nM; under `O=[N+]([O-])c1ccc(S(=O)(=O)N2CCCC(c3ccc(Cl)cc3)=N2)c([N+](=O)[O-])c1` [Compound 28], 3140 nM; under `CCCCc1ccc(S(=O)(=O)N2CCCC(c3ccccc3)=N2)cc1` [Compound 55], 21.9 nM. In the case of `COC(=O)c1ccccc1S(=O)(=O)N1CCCC(c2ccc(Cl)cc2)=N1` [Compound 29], the IC50 amounted to 244 nM. Turning to `O=S(=O)(c1ccc(Cl)c(Cl)c1)N1CCCC(c2ccc(Cl)cc2)=N1` [Compound 30], the IC50 came to 22 nM. In the case of `COC(=O)c1ccc(S(=O)(=O)N2CCCC(c3ccc(Cl)c(Cl)c3)=N2)cc1` [Compound 273, 3-(3,4-Dichlorophenyl)-1-(4-carbomethoxybenzesulfonyl)-1,4,5,6-tetrahydropyridazine], the IC50 is 3.4 nM. Under `O=S(=O)(c1ccc(Cl)cc1)N1CCCC(c2ccc(Br)cc2)=N1` [Compound 99] stands 21 nM; under `CC1CC(c2ccccc2)=NN(S(=O)(=O)c2cccc(C(F)(F)F)c2)C1` (centres unmarked) [Compound 141], 396 nM; under `O=[N+]([O-])c1cccc(S(=O)(=O)N2CCCC(c3ccc(Cl)c(C(F)(F)F)c3)=N2)c1` [Compound 127], 4.04 nM. Under `O=[N+]([O-])c1ccc(S(=O)(=O)N2CCCC(c3ccc(Cl)c(C(F)(F)F)c3)=N2)cc1` [Compound 128] stands 14.2 nM; under `O=[N+]([O-])c1cc(S(=O)(=O)N2CCCC(c3ccc(Cl)cc3)=N2)ccc1Cl` [Compound 67], 126 nM. On to `O=S(=O)(c1ccc(I)cc1)N1CCCC(c2cccc(Cl)c2)=N1` [Compound 96], for which the IC50 was determined as 12.1 nM. In the case of `O=S(=O)(c1ccc(Cl)cc1)N1CCCC(c2ccc3ccccc3c2)=N1` [Compound 117], the IC50 came out at 4.97 nM. With `O=S(=O)(c1cccc2ccccc12)N1CCCC(c2ccccc2)=N1` [Compound 56], the IC50 came out at 85.2 nM.

Take `O=S(=O)(/C=C/c1ccc2ccccc2c1)N1CCCC(c2ccc(Cl)c(C(F)(F)F)c2)=N1` [Compound 177]: the 50% inhibitory concentration (IC50) came out at 528 nM. In the case of `O=[N+]([O-])c1ccc(S(=O)(=O)N2CCCC(c3ccc(F)cc3)=N2)c([N+](=O)[O-])c1` [Compound 23], the IC50 is 3000 nM. `O=S(=O)(c1ccc(I)cc1)N1CCCC(c2ccc(F)cc2)=N1` [Compound 20]: the concentration for half-maximal inhibition (IC50) was 56 nM. In the case of `O=S(=O)(c1ccc(F)cc1F)N1CCCC(c2ccccc2)=N1` [Compound 59], the IC50 was 455 nM. For `O=[N+]([O-])c1cc(S(=O)(=O)N2CCCC(c3ccccc3)=N2)ccc1Cl` [Compound 58], the IC50 stood at 444 nM.

As to `O=S(=O)(c1ccc(Cl)cc1)N1CCCC(c2cccc(Cl)c2)=N1` [Compound 93], the IC50 is 11.1 nM. `O=S(=O)(c1ccccc1)N1CCCC(c2ccccc2)=N1` [Compound 66]: the 50% inhibitory concentration (IC50) turned out to be 375 nM. On to `O=S(=O)(c1ccc(F)cc1)N1CCCC(c2ccc(Cl)c(Cl)c2)=N1` [Compound 106], for which the IC50 was determined as 7.11 nM.

`O=S(=O)(c1cc(Cl)c(Cl)cc1Cl)N1CCCC(c2ccc(Cl)cc2)=N1` [Compound 68]: the IC50 was 13.4 nM. Consider `O=S(=O)(c1ccc(Br)cc1)N1CCCC(c2ccc(F)cc2)=N1` [Compound 19], for which the 50% inhibitory concentration (IC50) was found to be 61 nM.

In the case of `CN(C)c1ccc(C2=NN(S(=O)(=O)c3ccc(Br)cc3)CCC2)cc1` [Compound 213], the IC50 was determined as 326 nM. Take `O=S(=O)(c1ccc(Br)cc1)N1CCCC(c2ccccc2)=N1` [Compound 49]: the half-maximal inhibitory concentration (IC50) amounted to 127 nM. With `O=S(=O)(c1ccc(I)cc1)N1CCCC(c2ccccc2)=N1` [Compound 50], the concentration for half-maximal inhibition (IC50) amounted to 316 nM. Turning to `O=S(=O)(c1cc(Cl)cc(Cl)c1)N1CCCC(c2ccc(Cl)cc2)=N1` [Compound 31], the IC50 was found to be 4 nM. Regarding `Cc1ccc(S(=O)(=O)N2CCCC(c3cccc(Cl)c3)=N2)cc1` [Compound 92], the half-maximal inhibitory concentration (IC50) amounted to 23.9 nM. Take `O=S(=O)(c1ccc2c(c1)CCCC2)N1CCCC(c2ccc(Cl)c(Cl)c2)=N1` [Compound 114]: the IC50 amounted to 6.5 nM. Under `COC(=O)CCCOc1ccc(Br)cc1S(=O)(=O)N1CCCC(c2ccc(Cl)c(Cl)c2)=N1` [Compound 136, 3-(3,4-dichlorophenyl)-1-(2-(3-carbomethoxypropxy)-5-bromobenzenesulphonyl)-1,4,5,6-tetrahydropyridazine] stands 70 nM; under `O=S(=O)(c1ccc(C(F)(F)F)cc1)N1CCCC(c2ccc(Cl)cc2)=N1` [Compound 36], 11.5 nM; under `O=[N+]([O-])c1ccc(C(=S)N2CCCC(c3ccc(Cl)c(Cl)c3)=N2)cc1` [Compound 242], 12 nM. Regarding `Nc1ccc(S(=O)(=O)N2CCCC(c3ccc(Cl)c(Cl)c3)=N2)cc1` [Compound 274, 1-(4-Aminobenzenesulfonyl)-3-(3,4-dichlorophenyl)-1,4,5,6-tetrahydropyridazine], the concentration for half-maximal inhibition (IC50) was 204 nM. Under `CCCCc1ccc(C2=NN(S(=O)(=O)c3ccc(CCCC)cc3)CCC2)cc1` [Compound 75] stands 10000 nM; under `O=[N+]([O-])c1ccccc1S(=O)(=O)N1CCCC(c2ccc(F)cc2)=N1` [Compound 24], 308 nM; under `Cc1ccc(/C=C/S(=O)(=O)N2CCCC(c3ccc4ccccc4c3)=N2)cc1` [Compound 175], 6.2 nM. With `CCCCc1ccc(C2=NN(S(=O)(=O)c3cccc([N+](=O)[O-])c3)CCC2)cc1` [Compound 70], the IC50 turned out to be 10000 nM.

In the case of `O=[N+]([O-])c1ccc(S(=O)(=O)N2CCCC(c3ccccc3)=N2)cc1` [Compound 53], the IC50 came to 2200 nM. Under `CCCCc1ccc(S(=O)(=O)N2CCCC(c3ccc(Cl)c(C(F)(F)F)c3)=N2)cc1` [Compound 116] stands 8.77 nM; under `O=S(=O)(c1ccc2ccccc2c1)N1CCCC(c2ccc3ccccc3c2)=N1` [Compound 132], 7.5 nM. `O=S(=O)(c1ccccc1)N1CCCC(c2ccc(Cl)cc2)=N1` [Compound 37]: the IC50 was 12.9 nM. Under `O=S(=O)(c1cccc(C(F)(F)F)c1)N1CCCC(c2ccc(Cl)c(C(F)(F)F)c2)=N1` [Compound 126] stands 7.14 nM; under `O=S(=O)(c1cccc(C(F)(F)F)c1)N1CCCC(c2ccc3ccccc3c2)=N1` [Compound 130], 2.31 nM; under `O=[N+]([O-])c1cccc(S(=O)(=O)N2CCCC(c3ccccc3)=N2)c1` [Compound 62], 157 nM. With `O=S(=O)(c1ccccc1)N1CCCC(c2ccc3ccccc3c2)=N1` [Compound 131], the IC50 worked out at 17.4 nM.

With `O=S(=O)(c1cc(Cl)ccc1Cl)N1CCCC(c2ccccc2)=N1` [Compound 52], the IC50 is 42 nM. For `O=S(=O)(c1ccc(C(F)(F)F)cc1)N1CCCC(c2ccccc2)=N1` [Compound 61], the IC50 turned out to be 435 nM. Turning to `O=S(=O)(c1ccc(I)cc1)N1CCCC(c2ccc3c(c2)oc2ccccc23)=N1` [Compound 145, 3-(Dibenzofuran-3-yl)-1-(4-iodobenzenesulfonyl)-1,4,5,6-tetrahydropyradazine], the IC50 is 100 nM. Turning to `O=S(=O)(c1ccc(F)cc1)N1CCCC(c2ccccc2)=N1` [Compound 54], the IC50 worked out at 780 nM. Consider `O=S(=O)(c1ccc(Cl)cc1)N1CCCC(c2ccccc2)=N1` [Compound 48], for which the half-maximal inhibitory concentration (IC50) amounted to 266 nM. Consider `O=S(=O)(c1ccc(Br)cc1)N1CCCC(c2ccc(Br)cc2)=N1` [Compound 100], for which the IC50 stood at 23 nM.

Regarding `O=S(=O)(c1ccc(I)cc1)N1CCCC(c2ccc(Cl)cc2)=N1` [Compound 16], the IC50 worked out at 4.2 nM. `CN1C(=O)CSc2cc(C3=NN(S(=O)(=O)c4ccc(I)cc4)CCC3)ccc21` [Compound 138]: the IC50 is 341 nM. Turning to `O=S(=O)(c1cc(Cl)ccc1Cl)N1CCCC(c2ccc(Br)cc2)=N1` [Compound 102], the IC50 was 9 nM.

Turning to `O=S(=O)(c1cc(Cl)ccc1Cl)N1CCCC(c2ccc3ccccc3c2)=N1` [Compound 118], the IC50 is 5.56 nM. For `COC(=O)c1ccccc1S(=O)(=O)N1CCCC(c2ccc(F)cc2)=N1` [Compound 26], the IC50 came out at 451 nM. Turning to `Fc1ccc(C(=S)N2CCCC(c3ccc(Cl)c(Cl)c3)=N2)cc1Br` [Compound 246], the IC50 is 114 nM.

For `O=S(=O)(c1cc(Cl)c(Cl)cc1Cl)N1CCCC(c2ccc(Cl)c(Cl)c2)=N1` [Compound 107], the IC50 was 7.45 nM.

For `O=S(=O)(c1cccc(C(F)(F)F)c1)N1CCCC(c2ccc(Cl)c(Cl)c2)=N1` [Compound 98], the half-maximal inhibitory concentration (IC50) stood at 2.5 nM.

With `CCCCc1ccc(C2=NN(S(=O)(=O)c3ccccc3)CCC2)cc1` [Compound 76], the IC50 was 10000 nM.

For the compound `O=S(=O)(c1ccccc1)N1CCCC(c2ccc(Cl)c(C(F)(F)F)c2)=N1` [Compound 83], the IC50 stood at 4.83 nM.

The IC50 is the point on the concentration scale where inhibition reaches its midpoint.
